# In patent US20260217653A1, “CRYSTALLINE COMPOUND OF AN LPAR1 ANTAGONIST” (CONTINEUM THERAPEUTICS, INC., priority 2023, published 2026):
# Entries after “also recorded” stand apart in the source; their conditions may differ.
# Assays:
# [1] = Water sorption and desorption (hygroscopicity) by dynamic vapor sorption (DVS); type: physicochemical; conditions: 25° C.
# Experimental: Hygroscopicity of Pattern A was evaluated by dynamic vapor sorption (DVS) test at 25° C. with a cycle of 40→0→95→0→40% RH at a rate of change in mass per time unit of 0.002% per minute. […] It absorbed about 1.2% water at 80% RH and 3.1% water at 95% RH at 25° C. (FIG. 8). […] Water sorption and desorption behavior of Pattern A crystalline polymorph was investigated by DVS at 25° C. with a cycle of 40-0-95-0-40% RH, dm/dt 0.002, minimum equilibration time 60 min, and maximum equilibration time 360 min. XRPD was measured after the DVS test to determine form change.
# [2] = Bulk stability of Pattern A (XRPD, HPLC, color) after 1 week storage; type: physicochemical; conditions: for Bulk (XRPD) form after storage / Color after storage / Bulk (HPLC) purity after storage: Solid state, 1 week; for Bulk (HPLC) purity after storage: initial purity 99.9%
# Experimental: Bulk stability of Pattern A was evaluated at 25° C./92% RH in an open container, at 40° C./75% RH in an open container, and at 60° C. in a tight container over 1 week. […] Pattern A crystalline polymorph was placed at 25° C./92% RH in an open container, at 40° C./75% RH in an open container, and at 60° C. in a closed container for 1 week. Samples after the stress were characterized by XRPD and HPLC and inspected for color change.
# [3] = Compression simulation experiments (hydraulic press, XRPD); type: physicochemical; conditions: for Comments (crystallinity after compression) / XRPD after compression: 5 minutes
# Experimental: (§1) Feasibility of formulation process for Pattern A was evaluated by compression, grinding, and granulation simulation experiments. […] About 10 mg of Pattern A crystalline polymorph was compressed for 5 minutes under 5 MPa and 10 MPa with a hydraulic press. Potential form change and degree of crystallinity were evaluated by XRPD.
# [4] = Dry grinding simulation experiments (mortar and pestle, XRPD); type: physicochemical
# Experimental: as §1, with “20” for “10”, “ground manually” for “compressed for 5 minutes under 5 MPa and 10 MPa”, “mortar and pestle for 1, 3, and 5 min.” for “hydraulic press.”
# [5] = Wet granulation simulation experiments (XRPD); type: physicochemical
# Experimental: Feasibility of formulation process for Pattern A was evaluated by compression, grinding, and granulation simulation experiments. […] Water or ethanol was added drop wise to about 20 mg of Pattern A crystalline polymorph until the sample was wetted sufficiently. Wet sample was ground gently with a mortar and pestle. Post granulation sample was dried under ambient condition for 3 min. Potential form change and degree of crystallinity were evaluated by XRPD.
# human LPAR1 = target: T1, human LPAR1 (Homo sapiens, UniProt Q92633); assay: In vitro functional assay of lysophosphatidic acid receptor 1 activity (calcium flux, Fluo-4 NW, LPA 18:1 at EC80); type: cell-based; conditions: B103 cells stably expressing human LPAR1
# T1 construct: by own knowledge a rat neuroblastoma line
# T1 sequence (Q92633 whole entry): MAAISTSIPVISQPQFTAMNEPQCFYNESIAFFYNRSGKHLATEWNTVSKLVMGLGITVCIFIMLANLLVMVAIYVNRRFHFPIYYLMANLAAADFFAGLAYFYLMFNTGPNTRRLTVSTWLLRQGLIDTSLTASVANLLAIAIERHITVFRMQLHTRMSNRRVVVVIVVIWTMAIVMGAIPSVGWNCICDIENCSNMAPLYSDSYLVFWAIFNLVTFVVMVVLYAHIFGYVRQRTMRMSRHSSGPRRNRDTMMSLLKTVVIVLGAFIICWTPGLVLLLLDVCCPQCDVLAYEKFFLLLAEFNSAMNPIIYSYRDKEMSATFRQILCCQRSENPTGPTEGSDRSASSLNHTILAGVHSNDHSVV
# Experimental: Primary compound plates were prepared in 100% DMSO (Sigma-Aldrich), secondary compound plates were prepared at 10× concentration in DMEM (Invitrogen), and tertiary compound plates were prepared at 3× concentration in assay buffer containing HBSS (no Ca^+2/Mg^−2. Invitrogen) and 0.1% BSA (Sigma-Aldrich). Fluo-4 NW calcium assay dye (Invitrogen) was prepared as per manufacturer's recommendations in assay buffer. B103 cells stably expressing human LPAR1 (J. Chun lab, UCSD) were grown to confluency in DMEM media (Invitrogen) containing 10% FBS (ATCC), […] (Sigma-Aldrich) and […] (Sigma-Aldrich), and detached with Accutase (Sigma-Aldrich) prior to assay. The freshly detached cells were resuspended in growth media and plated in black, clear-bottom 96-well plates (Costar) containing compound (i.e., secondary compound plate) at a density of 5×10^4 cells/well. Once plated, cells were left at room temperature for 30 minutes and then transferred to a 37° C. 5% CO2 incubator for 24 hours. […] Finally, lysophosphatidic acid (18:1) at the EC80 concentration was added and calcium flux measured using FlexStation 3 (Molecular Devices). Sigmoidal dose-response curves were generated by measuring […] over 45 sec and calculating the area under the curve. […]
# [6] = grinding time 1 min, mortar and pestle
compound,measurement,setting,value
"COc1ccc(NC(=O)N(c2ccccc2C(C)C)[C@H]2CC[C@H](C(=O)O)CC2)c(OC(F)F)n1 [Pattern A, trans-4-(3-(2-(difluoromethoxy)-6-methoxypyridin-3-yl)-1-(2-isopropylphenyl)ureido)cyclohexane-1-carboxylic acid]",1st desorp. Weight % change,[1]; 0% RH,0.03%
same,1st sorp. Weight % change,[1]; 0% RH,0.03%
same,2nd desorp. Weight % change,[1]; 0% RH,0.00%
same,2nd sorp. Weight % change,[1]; 0% RH,0.00%
same,1st desorp. Weight % change,[1]; 10% RH,0.05%
same,1st sorp. Weight % change,[1]; 10% RH,0.05%
same,2nd desorp. Weight % change,[1]; 10% RH,0.02%
same,2nd sorp. Weight % change,[1]; 10% RH,0.02%
same,1st desorp. Weight % change,[1]; 20% RH,0.05%
same,1st sorp. Weight % change,[1]; 20% RH,0.05%
same,2nd desorp. Weight % change,[1]; 20% RH,0.03%
same,2nd sorp. Weight % change,[1]; 20% RH,0.02%
same,1st desorp. Weight % change,[1]; 30% RH,0.06%
same,1st sorp. Weight % change,[1]; 30% RH,0.05%
same,2nd desorp. Weight % change,[1]; 30% RH,0.03%
same,2nd sorp. Weight % change,[1]; 30% RH,0.02%
same,1st desorp. Weight % change,[1]; 40% RH,0.06%
same,1st sorp. Weight % change,[1]; 40% RH,0.05%
same,2nd desorp. Weight % change,[1]; 40% RH,0.04%
same,2nd sorp. Weight % change,[1]; 40% RH,0.03%
same,1st sorp. Weight % change,[1]; 50% RH,0.06%
same,2nd desorp. Weight % change,[1]; 50% RH,0.35%
same,1st sorp. Weight % change,[1]; 60% RH,0.06%
same,2nd desorp. Weight % change,[1]; 60% RH,0.64%
same,1st sorp. Weight % change,[1]; 70% RH,0.07%
same,2nd desorp. Weight % change,[1]; 70% RH,0.84%
same,1st sorp. Weight % change,[1]; 80% RH,1.15%
same,2nd desorp. Weight % change,[1]; 80% RH,1.16%
same,Hygroscopicity,[1]; 80% RH,slightly hygroscopic
same,Water absorbed,[1]; 80% RH,about 1.2%
same,1st sorp. Weight % change,[1]; 90% RH,1.93%
same,2nd desorp. Weight % change,[1]; 90% RH,1.93%
same,1st sorp. Weight % change,[1]; 95% RH,3.06%
same,2nd desorp. Weight % change,[1]; 95% RH,3.06%
same,Hygroscopicity,[1]; 95% RH,hygroscopic
same,Water absorbed,[1]; 95% RH,~3.1%
same,XRPD after DVS test,[1]; after cycle 40-0-95-0-40% RH,still Pattern A; also recorded: No form change (FIG. 9)
same,Bulk stability (physical and chemical),"[2]; 25° C./92% RH open container, 40° C./75% RH open container, 60° C. tight container, over 1 week",physically and chemically stable
same,Bulk (XRPD) form after storage,"[2]; 25° C./92% RH, open container",Pattern A (FIG. 7)
same,Color after storage,"[2]; 25° C./92% RH, open container",No change
same,Bulk (HPLC) purity after storage,"[2]; 25° C./92% RH, open container",99.9%
same,Bulk (XRPD) form after storage,"[2]; 40° C./75% RH, open container",Pattern A (FIG. 7)
same,Color after storage,"[2]; 40° C./75% RH, open container",No change
same,Bulk (HPLC) purity after storage,"[2]; 40° C./75% RH, open container",99.9%
same,Bulk (XRPD) form after storage,"[2]; 60° C., tight container",Pattern A (FIG. 7)
same,Color after storage,"[2]; 60° C., tight container",No change
same,Bulk (HPLC) purity after storage,"[2]; 60° C., tight container",99.9%
same,Comments (crystallinity after compression),[3]; 5 MPa,Slight decrease in crystallinity; also recorded: Peaks becoming broader
same,XRPD after compression,[3]; 5 MPa,Pattern A
same,Comments (crystallinity after compression),[3]; 10 MPa,Slight decrease in crystallinity; also recorded: Peaks becoming broader
same,XRPD after compression,[3]; 10 MPa,Pattern A
same,Crystallinity change upon compression,[3]; compression (5 MPa and 10 MPa),only slight crystallinity decrease
same,Form change upon compression,[3]; compression (5 MPa and 10 MPa),no form change
same,Form after manual grinding,[4]; after 3 minutes of grinding with a mortar and pestle,converted to practically amorphous form
same,Comments (crystallinity after dry grinding),[4]; [6],Peaks becoming broader; also recorded: Partial amorphization
same,XRPD after dry grinding,[4]; [6],Pattern A
same,XRPD after dry grinding,"[4]; grinding time 3 min, mortar and pestle",Almost amorphous
same,XRPD after dry grinding,"[4]; grinding time 5 min, mortar and pestle",Almost amorphous
same,Comments (crystallinity after wet granulation),[5]; granulation solvent ethanol,Peaks becoming broader; also recorded: Partial amorphization; also recorded: Significant decrease in
same,XRPD after wet granulation,[5]; granulation solvent ethanol,Pattern A
same,Comments (crystallinity after wet granulation),[5]; granulation solvent water,Significant decrease in; also recorded: Peaks becoming broader; also recorded: Partial amorphization
same,XRPD after wet granulation,[5]; granulation solvent water,Pattern A
same,Crystallinity/form upon wet granulation,[5]; wet granulation with ethanol or water,partial amorphization was observed
COc1ccc(NC(=O)N(c2ccccc2C(C)C)[C@H]2CC[C@H](C(=O)O)CC2)c(OC(F)F)n1 [trans-4-(3-(2-(difluoromethoxy)-6-methoxypyridin-3-yl)-1-(2-isopropylphenyl)ureido)cyclohexane-1-carboxylic acid],IC50,human LPAR1,10 nM
